Measurements taken from ChEMBL document CHEMBL5113532, “Design and Characterization of a Natural Arf-GEFs Inhibitor Prodrug CHNQD-01255 with Potent Anti-Hepatocellular Carcinoma Efficacy In Vivo” (J Med Chem, 2022).
In brackets after ≈: the same amount, converted by molar mass. Activity calls are given as the source filed them. The rule behind the calls is not given here.

What was measured:
[1] = Solubility of the compound in saline/solutol HS-15 (90/10% V/V) at pH 7.4; type: physicochemical
HepG2 [2] = assay: Antiproliferative activity against human HepG2 cells by MTT assay; type: functional, cell-based
[3] = Solubility of the compound in PBS/DMSO (95/5% V/V) at pH 7.2 to 7.4; type: physicochemical
[4] = Stability of the compound in absence of light of 100 lux measured of 3 days by HPLC analysis; type: physicochemical; settings: 72 h; time 3 day
[5] = Toxicity in BALB/c mouse xenografted with human HepG2 cells assessed as change in body weight at 15 to 45 mg/kg, po qd at 45 mg/kg, po treated daily for 21 days measured every 3 days for 21 days; type: organism-based; settings: in vivo, 504 h, dose 15-45 mg/kg, time 21 day
HepG2 [6] = assay: Antitumor activity against human HepG2 cells xenografted in BALB/c nude mouse assessed as reduction in tumor weight at 45 mg/kg, po qd administered daily for 21 consecutive days and measured on day 21; type: functional, organism-based; settings: time <= 21.0 day
[7] = AUC (0 to t) in ICR mouse at 45 mg/kg, po measured after 0.083 to 12 hrs by UPLC-MS/MS analysis; type: ADME, organism-based; set-up: dose 45 mg/kg, time upper 12 hrs, time lower 0.083 hrs, route po; settings: in vivo
[8] = Oral bioavailability in ICR mouse at 45 mg/kg measured after 0.083 to 12 hrs by UPLC-MS/MS analysis; type: ADME, organism-based; settings: in vivo, time 0.083-12 hrs
[9] = Drug distribution in ICR mouse heart at 100 mg/kg, ip measured upto 0.5 hrs by UPLC-MS/MS analysis; type: ADME, organism-based; settings: in vivo
[10] = Drug distribution in ICR mouse lung at 100 mg/kg, ip measured upto 0.5 hrs by UPLC-MS/MS analysis; type: ADME, organism-based; settings: in vivo
[11] = Drug distribution in ICR mouse kidney at 100 mg/kg, ip measured upto 0.5 hrs by UPLC-MS/MS analysis; type: ADME, organism-based; settings: in vivo
[12] = Drug elimination in ICR mouse spleen at 100 mg/kg, ip measured for 1.5 hrs by UPLC-MS/MS analysis; type: ADME, organism-based; settings: in vivo
[13] = Drug elimination in ICR mouse lung at 100 mg/kg, ip measured for 1.5 hrs by UPLC-MS/MS analysis; type: ADME, organism-based; settings: in vivo
[14] = Drug elimination in ICR mouse duodenum at 100 mg/kg, ip measured for 1.5 hrs by UPLC-MS/MS analysis; type: ADME, organism-based; settings: in vivo
[15] = Hepatotoxicity in ICR mouse assessed as change in blood ALT level at 45 mg/kg, po by biochemical assay; type: toxicity, organism-based; settings: in vivo
[16] = Hepatotoxicity in ICR mouse assessed as change in blood ALP level at 45 mg/kg, po by biochemical assay; type: toxicity, organism-based; settings: in vivo
[17] = Renal toxicity in ICR mouse assessed as change in blood UREA level at 45 mg/kg, po by biochemical assay; type: organism-based; settings: in vivo
[18] = Renal toxicity in ICR mouse assessed as change in blood CREA level at 45 mg/kg, po by biochemical assay; type: organism-based; settings: in vivo
[19] = Renal toxicity in ICR mouse assessed as change in blood CK level at 45 mg/kg, po by biochemical assay; type: organism-based; settings: in vivo
[20] = Toxicity in ICR mouse assessed as effect on heart at 45 mg/kg, po measured after 2 weeks by H and E staining based analysis; type: organism-based; settings: in vivo, 336 h
HepG2 [21] = assay: Antitumor activity against human HepG2 cells xenografted in BALB/c nude mouse assessed as reduction in tumor weight at 1 to 9 mg/kg, iv qd administered daily for 21 consecutive days measured on day 21; type: functional, organism-based; settings: dose 1-9 mg/kg, time 21.0 day

## C[C@H]1CCC/C=C/[C@@H]2C[C@H](OC(=O)OCc3cccnc3)C[C@H]2[C@H](O)/C=C/C(=O)O1
[1]
  solubility: 5000 µg/mL (≈ 12 mM)
HepG2 [2]
  IC50: 100 nM
[3]
  solubility: < 1000 µg/mL
[4]
  Stability: Stable
[5]
  Activity: Non-Toxic
HepG2 [6]
  Activity: Active
[7]
  AUC(0-t): 52.9 ng·h/mL
[8]
  bioavailability: 2.26%
[9]
  Drug uptake: Active
[10]
  Drug uptake: Active
[11]
  Drug uptake: Active
[12]
  Drug excretion: Active
[13]
  Drug excretion: Active
[14]
  Drug excretion: Active
[15]
  Activity: Non-Toxic
[16]
  Activity: Non-Toxic
[17]
  Activity: Non-Toxic
[18]
  Activity: Non-Toxic
[19]
  Activity: Non-Toxic
[20]
  Activity: Non-Toxic
HepG2 [21]
  Activity: Active
